Several values for one entry are separate records, joined by “and”; a condition that tells them apart may be missing. Equal values may be shown once. Where a name gives a salt, the structure may show the parent alone.

The test system of one series is blood glucose. Kind of series: Ocular administration of insulin plus absorption enhancer, blood glucose in anesthetized rats. It is filed as in vivo, rat (male Sprague-Dawley). To be noted: for effect on blood glucose / ocular insulin absorption: 0.5% enhancer with 0.2% insulin eye drops; for Blood Glucose: insulin eye drops + 0.5%.
Series [1] in a line: Octreotide pharmacokinetics after s.c. and oral delivery. To be noted: for CL/F: po; for t1/2 1: first peak; for t1/2 2: second peak. How it is done: C prior to administration. […] Death is confirmed by cervical dislocation. […] Euthanasia is confirmed by cervical dislocation.
Pharmacokinetic analyses is carried out as follows.
Serum half-life (t1/2) is determined as follows.

With regular porcine insulin, the “effect on blood D-glucose” value in the series on blood glucose (0.2% in saline only, no enhancer, eye drops) is recorded as “remained elevated”.

Consider `CCCCCCCOC1O[C@H](CO)[C@@H](O)[C@H](O)[C@H]1O` (some centres unmarked) [heptylglucoside, heptylglucopyranoside], for which the “effect on blood glucose / ocular insulin absorption” value in the series on blood glucose is listed as “ineffective”.

As for decylsucrose, the Blood Glucose with blood glucose (120 min) worked out at 164 mg/dL; in the series with blood glucose (time 0), 313 mg/dL.

In the case of `CCCCCCOC1O[C@H](CO)[C@@H](O)[C@H](O)[C@H]1O` (some centres unmarked) [hexylglucoside, Hexylglucopyranoside], the “effect on blood glucose / ocular insulin absorption” value in the series with blood glucose is recorded as “ineffective”.

The term CL/F denotes the apparent clearance, not corrected for the fraction that reaches the circulation. For orientation: half-life means how long it takes for the measured level to halve. Low readings indicate fast loss, high ones slow loss. As for `C[C@@H](O)[C@@H]1NC(=O)[C@H](CCCCN)NC(=O)[C@@H](Cc2c[nH]c3ccccc23)NC(=O)[C@H](Cc2ccccc2)NC(=O)[C@@H](NC(=O)[C@H](N)Cc2ccccc2)CSSC[C@@H](C(=O)N[C@H](CO)[C@@H](C)O)NC1=O` (relative stereo) [Octreotide, L-Cysteinamide, D-phenylalanyl-L-cysteinyl-L-phenylalanyl-D-tryptophyl-L-lysyl-L-threonyl-N-[2-hydroxy-1-(hydroxymethyl)propyl]-, cyclic (2→7)-disulfide; [R—(R*, R*)]acetate salt], the CL/F turned out to be 54900 mL/min in series [1] (mouse, in vivo, 1 mg/kg, oral 3.0% DDM) and 28400 mL/min in series [1] (mouse, in vivo, 1 mg/kg, oral […] DDM). In series [1] (mouse, in vivo, sc, 1 mg/kg), this compound yielded a half-life of 41.2 min. The “t1/2 1” value in series [1] (oral 0.5% DDM, 1 mg/kg) amounted to 1.56 min; in series [1] (oral 3.0% DDM, 1 mg/kg), 1.33 min; in series [1] (oral […] DDM, 1 mg/kg), 0.96 min; in series [1] (s.c., 1 mg/kg), 2.04 min. For the same compound, the “t1/2 2” value in series [1] (oral 0.5% DDM, 1 mg/kg) is 52.50 min; in series [1] (oral 3.0% DDM, 1 mg/kg), 22.28 min; in series [1] (s.c., 1 mg/kg) it was 39.15 min. Moreover, the AUC1 in series [1] (oral 0.5% DDM, 1 mg/kg) stood at 353.03 ng/mL/min; in series [1] (oral 3.0% DDM, 1 mg/kg), 21.50 ng/mL/min; in series [1] (oral […] DDM, 1 mg/kg) it was 97.80 ng/mL/min; in series [1] (s.c., 1 mg/kg), 38.39 ng/mL/min. Also, the AUC2 worked out at 901.04 ng/mL/min in series [1] (oral 0.5% DDM, 1 mg/kg); 119.74 ng/mL/min in series [1] (oral 3.0% DDM, 1 mg/kg); 132.90 ng/mL/min in series [1] (oral […] DDM, 1 mg/kg); 251.73 ng/mL/min in series [1] (s.c., 1 mg/kg). In addition, the t1/2 in series [1] (oral 0.5% DDM, 1 mg/kg) was 52.1 min; in series [1] (oral 0.5% DDM, 1 mg/kg, listed as octreotide) it was 53.1 min and 52.1 min; in series [1] (oral 3.0% DDM, 1 mg/kg), 23.6 min; in series [1] (oral […] DDM, 1 mg/kg), 25.8 min. The “Cmax1 higher than Cmax2” value in series [1] (oral 0.5% Intravail) is given as “more than 2 fold”.

With `CCCCCCCCO[C@@H]1O[C@H](CO)[C@@H](O[C@H]2O[C@H](CO)[C@@H](O)[C@H](O)[C@H]2O)[C@H](O)[C@H]1O` [octyl maltoside, Octyl-β-D-maltoside], the “effect on ocular insulin absorption (alkyl chain length comparison)” value with blood glucose (alkylmaltosides with insulin eye drops) was “less absorption enhancing activity”.

As for `CCCCCCCCCOC1O[C@H](CO)[C@@H](O)[C@H](O)[C@H]1O` (some centres unmarked) [nonylglucoside, nonylglucopyranoside], the “effect on blood glucose / ocular insulin absorption” value with blood glucose is reported as “effectively stimulated insulin absorption”. Also, the Blood Glucose in the series with blood glucose (reduced level, time not given) worked out at 150 mg/dL; in the series on blood glucose (starting level), 297 mg/dL.

The values above are taken from patent US20260364175A1, “COMPOSITIONS FOR DRUG ADMINISTRATION” (Aegis Therapeutics, LLC, priority 2018, published 2026).
